How the values were obtained:
[1] = biological target: recombinant human Cathepsin K (Homo sapiens (Human), UniProt P43235); experiment: Inhibition of Human Cathepsin K; assay type: biochemical; details: substrate Z-Gly-Pro-Arg-AMC, 60 min room temperature
Source text: Inhibition of Human Cathepsin K Materials: Microtiterplates (Optiplate-384 F were purchased from PerkinElmer (Prod. No. 6007270). The substrate Z-Gly-Pro-Arg-AMC was from Biomol (Prod.-No. P-142). L-Cysteine (Prod. No. 168149) was from Sigma. Sodium actetate was from Merck (Prod.-No. 6268.0250), EDTA was from Fluka (Prod.-No. 03680). The inhibitor E-64 was purchased from Sigma (Prod.-No. E3132). The recombinant human Cathepsin K proenzyme was purchased from Biomol (Prod. No. SE-367). All other materials were of highest grade commercially available.
The following buffers were used: Activation buffer: 32.5 mM sodium acetate, adjusted to pH 3.5 with HCl; Assay buffer: 150 mM sodium acetate, 4 mM EDTA, 20 mM L-Cysteine, adjusted to pH 5.5 with HCl,
To activate the proenzyme, 5 μl procathepsin K were mixed with 1 ul activation buffer, and incubated at room temperature for 30 min.
5 μL test compound (final concentration 0.1 nM to 100 μM) in aqua bidest (containing 4% DMSO, final DMSO concentration 1%) were mixed with 10 uL of Cathepsin K in assay buffer (final concentration 2 ng/μL) and incubated for 10 min. Then 5 μL of substrate in assay buffer (final concentration 12.5 μM) were added. The plates were then incubated at room temperature for 60 min. Then, the reaction was stopped by adding 10 μL of E64 in assay buffer (final concentration 1 μM). The fluorescence in the wells was determined using a Molecular Devices SpectraMax M5 Fluorescence Reader (Ex 360 nm, Em 460 nm).
Each assay microtiter plate contains wells with vehicle controls (1% DMSO in bidest) as reference for non-inhibited enzyme activity (100% Ctl; high values) and wells with inhibitor (E64 in bidest+1% DMSO, final concentration 1 μM) as controls for background fluorescence (0% Ctl; low values). The analysis of the data was performed by calculating the percentage of fluorescence in the presence of test compound in comparison to the fluorescence of the vehicle control after subtracting the background fluorescence: (RFU(sample)−RFU(background))*100/(RFU(control)−RFU(background))
Data from these calculations were used to generate IC50 values for inhibition of Cathepsin K, respectively.

[2] = Metabolic stability with human liver microsomes; assay type: in vitro ADME; details: pH 7.6; pooled human liver microsomes, 37° C., 1 μM test compound, 1 mg/ml protein, NADPH; read-out: In vitro stability in human liver microsome incubations t½
Method: Determination of Metabolic Stability with Human Liver Microsomes
The metabolic degradation of the test compound is assayed at 37° C. with pooled human liver microsomes. The final incubation volume of 100 μl per time point contains TRIS buffer pH 7.6 (0.1 M), magnesium chloride (5 mM), microsomal protein (1 mg/ml) and the test compound at a final concentration of 1 μM. Following a short preincubation period at 37° C., the reactions are initiated by addition of beta-nicotinamide adenine dinucleotide phosphate, reduced form (NADPH, 1 mM) and terminated by transferring an aliquot into acetonitrile after different time points. Additionally, the NADPH-independent degradation is monitored in incubations without NADPH, terminated at the last time point. The [%] remaining test compound after NADPH independent incubation is reflected by the parameter c(control) (metabolic stability). The quenched incubations are pelleted by centrifugation (10,000 g, 5 min). An aliquot of the supernatant is assayed by LC-MS/MS for the amount of parent compound.
The half-life (t½ INVITRO) is determined by the slope of the semilogarithmic plot of the concentration-time profile. The intrinsic clearance (CL_[…]) is calculated by considering the amount of protein in the incubation: CL_[…][μl/min/mg protein]=(ln 2/(half-life[min]*protein content[mg/ml]))*1,000.

recombinant human Cathepsin K, sequence (P43235 115-329): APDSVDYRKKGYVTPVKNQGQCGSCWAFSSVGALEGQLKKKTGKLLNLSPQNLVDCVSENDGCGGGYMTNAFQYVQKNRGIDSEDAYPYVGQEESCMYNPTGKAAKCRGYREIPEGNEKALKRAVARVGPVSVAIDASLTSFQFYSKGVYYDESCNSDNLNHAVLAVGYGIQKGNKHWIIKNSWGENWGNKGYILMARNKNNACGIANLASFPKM

Structure (SMILES) | IC50 [1] [nM] | half-life at 1 μM [2] [h]
CN1C(=O)Cc2ccc(-c3ccc(C[C@@H](C#N)NC(=O)C45CCC(CC4)CN5)cc3)cc21 [Example 2] | 6700 | > 2.17
CN1Cc2cc(-c3ccc(C[C@@H](C#N)NC(=O)C45CCC(CC4)CN5)cc3)ccc2C1=O [Example 4] | 6300 | > 2.17
CS(=O)(=O)c1ccc(-c2ccc(C[C@@H](C#N)NC(=O)C34CCC(CC3)CN4)c(F)c2)cc1 [Example 21, N-[(1S)-1-cyano-2-[2-fluoro-4-(4-methanesulfonylphenyl)phenyl]ethyl]-2-azabicyclo[2.2.2]octane-1-carboxamide] | 800 | > 2.17
N#C[C@H](Cc1ccc(-c2ccc3c(c2)CCNC3=O)cc1F)NC(=O)C12CCC(CC1)CN2 [Example 22] | 2300 | > 2.17
N#C[C@H](Cc1ccc(-c2ccc3c(c2)NC(=O)C3)cc1F)NC(=O)C12CCC(CC1)CN2 [Example 23] | 600 | > 2.17
COCCN1C(=O)Cc2ccc(-c3ccc(C[C@@H](C#N)NC(=O)C45CCC(CC4)CN5)c(F)c3)cc21 [Example 26] | 1100 | > 2.17
CC1(C)OC(=O)c2ccc(-c3ccc(C[C@@H](C#N)NC(=O)C45CCC(CC4)CN5)c(F)c3)cc21 [Example 27] | 1700 | > 2.17
CN1C(=O)Cc2ccc(-c3ccc(C[C@@H](C#N)NC(=O)C45CCC(CC4)CN5)c(F)c3)cc21 [Example 28] | 2200 | > 2.17
N#C[C@H](Cc1ccc(-c2csc(C(N)=O)c2)cc1F)NC(=O)C12CCC(CC1)CN2 [Example 31] | 800 | > 2.17

Reference: patent US8889708B2 (Boehringer Ingelheim International GmbH, priority 2013, dated 2014)
